Test results from US9382224B2, “7-acyloxychromen-4-one derivatives and the use thereof as self-tanning substances” (MERCK PATENT GMBH, priority 2011, dated 2016).

Tests used:
[1] = system: tissue samples taken from the stomach tissue of a person; experiment: Ex vivo study on the promotion of melanogenesis: chromatometry of tissue samples; format: cell-based, human; conditions: for % L: D10 versus D0
Method: (§1) The tissue samples having a diameter of 10 mm are taken from the stomach tissue of a person and stored in BEM medium at 37° C. in a moist atmosphere having a CO2 content of 5%. The tissue samples are employed in accordance with the following test plan:
(§2) 30 μl of test solution are placed on a filter paper and immediately laid on the tissue sample.
(§3) The irradiations are carried out daily before treatment of the tissue samples with test solutions. An RMX 3W Vilbert Lourmat instrument is used. The UV dose is 1.04 J/cm2 comprising 6/8% of UVB.
The colour coordinates of the tissue samples are determined by means of a Minolta CM 2600d chromatometer.

[2] = system: melanocytes and keratinocytes of tissue samples taken from the stomach tissue of a person; experiment: Ex vivo study on the promotion of melanogenesis: histological analysis, melanin visualisation; format: cell-based, human; conditions: for activity of the melanocytes / melanin content in basal keratinocytes / melanin content in suprabasal keratinocytes / melanin in basal keratinocytes: treatment for 10 days
Method: as §1, §2, §3
On the first day (D0), 3 untreated tissue samples are halved, and in each case one half is fixed in buffered formalin solution. The respective other halves are frozen at −80° C.
After fixing for 24 hours in buffered formalin solution, the samples are dehydrated in a Leica TP1010 automatic dryer and impregnated with paraffin. After embedding with the aid of a Leica EG1160 station, 5 μm thin cross sections are produced from the samples using a Leica RM 2125 Minot-type microtome.
The cross sections are mounted on Superfrost Plus specimen slides made from silanised glass. The light-microscopy analysis is carried out by means of a Leica Orthoplan microscope with 25-times magnification in order to assess the general morphology or 40-times magnification in order to visualise the melanin.
The melanin visualisation is carried out after impregnation of the paraffinised cross-sections with silver in accordance with Masson in the Fontana variant.

[3] = with UV irradiation, after 10 days
[4] = without UV irradiation, after 10 days

| SMILES | activity indicated by chromatometric analysis ([1]; with UV irradiation) | L ([1]; with UV irradiation, D0) | L ([1]; with UV irradiation, D10) | % L ([1]; with UV irradiation) | light/dark parameter L drops by [1, 3] | activity indicated by chromatometric analysis ([1]; without UV irradiation) | L ([1]; without UV irradiation, D0) | L ([1]; without UV irradiation, D10) | % L ([1]; without UV irradiation) | decrease in the L parameter [1, 4] | activity of the melanocytes ([2]; with UV irradiation) | melanin content in basal keratinocytes ([2]; with UV irradiation) | melanin content in suprabasal keratinocytes ([2]; with UV irradiation) | increase of the area of the basal layer occupied by melanin ([2]; without UV irradiation, compared with the untreated control) | activity of the melanocytes ([2]; without UV irradiation) | melanin content in suprabasal keratinocytes ([2]; without UV irradiation) | melanin in basal keratinocytes ([2]; without UV irradiation) | change in the L parameter (in words) [1, 3] | tanning activity in the ex vivo experiment [1] | increase in the L parameter [1, 4] |
| --- | --- | --- | --- | --- | --- | --- | --- | --- | --- | --- | --- | --- | --- | --- | --- | --- | --- | --- | --- | --- |
| CCCCCCCCCCCCCCCC(=O)Oc1cc(O)c2c(=O)cc(C)oc2c1 [compound Ia, 5-hydroxy-2-methyl-4-oxo-4H-chromen-7-yl hexadecanoate] | clear pro-pigmenting activity | 64.07 | 61.52 | −4% | 4.0% | pro-pigmenting activity | 64.53 | 61.24 | −5.1% | 5.1% | high degree of activity | high | moderate | 43% | very high activity | moderate | readily detectable | – | – | – |
| COc1cc(O)c2c(=O)cc(C)oc2c1 [5-hydroxy-7-methoxy-2-methylchromen-4-one] | skin-lightening activity | 63.63 | 64.60 | 1.5% | – | skin-lightening activity | 61.50 | 64.64 | 5.1% | – | very low activity | moderate | low | – | very low activity | low | moderate | increase in the L parameter | – | – |
| CC(=O)c1cc(O)c2c(=O)cc(C)oc2c1 [5-hydroxy-7-acetyl-2-methylchromen-4-one] | skin-lightening activity | 63.66 | 64.87 | 1.9% | – | skin-lightening activity | 62.19 | 63.98 | 2.9% | – | low activity | moderate | low | – | very low activity | low | moderate | increase in the L parameter | no tanning activity | 2.9% |
